Assay results: patent US11013728B2, “Cyclin-dependent kinase 8 and/or 19 inhibitor” (Kyoto Pharmaceutical Industries, Ltd., priority 2017, dated 2021)

How the values were obtained:
[1] = test system: human acute myeloid leukemia MV4; 11; test: MV4;11 cell proliferation inhibitory activity (CellTiter 96 Aqueous One); format: cell-based; conditions: 72 h, MV4;11 cells, cultured 3 days, read-out: cell proliferation inhibitory rate
Protocol: The human acute myeloid leukemia MV4; 11 cell proliferation inhibitory activity of compound (I) of the present invention was evaluated by the following method.
A cell suspension (100 μL, 10,000 cells/well) of human acute myeloid leukemia MV4; 11 (purchased from American Type Culture Collection) was seeded on a 96 well plate and cultured in a 5% carbon dioxide gas incubator at 37° C. for one day. After the above-mentioned culture, each test compound (compound (I)) was added to a concentration of 1 μM and the mixture was further cultured for 3 days. After the above-mentioned culture, 40 μL of CellTiter 96 (registered trade mark) Aqueous One Solution Cell Proliferation Assay (Promega KK) was added to the 96 well-plate, the mixture was reacted for 3 hr, and the absorbance (490 nm) was measured by a plate reader.
Using the absorbance of the test compound non-addition well as a control and the absorbance of the cell non-seeded well as a blank, the cell proliferation inhibitory rate was determined at 1 μM of each test compound.

[2] = test system: 39 kinds of serine/threonine kinase; test: Off-chip Mobility Shift Assay (MSA), serine/threonine kinase panel; format: biochemical; conditions: test compound 1 μM; 39 kinases listed in b243 (AKT1 ... TSSK1, incl. CDK2, 3, 4, 5, 6, 7, 9)
Protocol: The action of compound (I) of the present invention on serine/threonine kinase activity was examined by Off-chip Mobility Shift Assay (MSA). The method is shown below.
The action of a test compound (1 μM) on 39 kinds of serine/threonine kinase activity was examined. A solution of 4-fold concentration of compound 32 (5 μL) prepared by using an assay buffer (20 mM HEPES, 0.01% Triton X-100, 2 mM DTT, pH 7.5), a substrate/ATP/metal solution (5 μL) and a kinase […] solution (10 μL) were mixed in a well of a polypropylene 384 well plate and the mixture was reacted at room temperature for 1 or 5 hr. The reaction was discontinued by adding 70 μL of Termination Buffer (Carna Biosciences). The substrate peptide and phosphorylated peptide in the reaction solution were separated and quantified by LabChip System (Perkin Elmer).
The kinase reaction was evaluated based on a resultant product ratio (P/(P+S)) calculated from substrate peptide peak height (S) and phosphorylated peptide peak height (P).

[3] = target: T1, CDK19 (Homo sapiens, UniProt Q9BWU1); test: CDK19 inhibitory activity, ELISA kinase assay; format: biochemical; conditions: at 1 μM of test compound; read-out: CDK19 inhibitory rate
T1 construct: purchased Carna Bioscience
Protocol: The test compound (compound (I)) dissolved in DMSO was diluted with an assay buffer (QSS Assist STK ELISA Kit (CDK8/CycC), Carna Bioscience) to give a primary dilution solution with a DMSO concentration of 40%. The above-mentioned primary dilution solution (10 μL) was dispensed in a streptavidin-coated 96 well plate, and an assay buffer mixture (10 μL) containing 500 nM substrate (Carna Bioscience), 10 mM MgCl2 (Carna Bioscience) and 100 μM ATP (Carna Bioscience) was added. After the above-mentioned addition, 10 μL of a kinase solution was added (1 ng/μL CDK8/CycC (Carna Bioscience) diluted with assay buffer is used for measurement of CDK8 inhibitory activity and for 5 ng/μL […] (Carna Bioscience) diluted with assay buffer is used for measurement of CDK19 inhibitory activity). After the above-mentioned addition, the mixture was stood in an incubator at 24-26° C. for 30 min. […] The reaction was quenched by adding a color developing reaction termination drug (Nacalai Tesque) (100 μL) to each well, and the absorbance (450 nm) was measured by a plate reader.
Using the absorbance of the test compound non-addition well as a control and the absorbance of the enzyme non-addition well as a blank, the CDK8 and CDK19 inhibitory rate was determined at 1 μM of each test compound.

[4] = test system: various cancer cells; conditions: reported in non-patent document 3; remarkable effects on leukemia cells; cited from earlier work

T1 sequence (Q9BWU1 whole entry): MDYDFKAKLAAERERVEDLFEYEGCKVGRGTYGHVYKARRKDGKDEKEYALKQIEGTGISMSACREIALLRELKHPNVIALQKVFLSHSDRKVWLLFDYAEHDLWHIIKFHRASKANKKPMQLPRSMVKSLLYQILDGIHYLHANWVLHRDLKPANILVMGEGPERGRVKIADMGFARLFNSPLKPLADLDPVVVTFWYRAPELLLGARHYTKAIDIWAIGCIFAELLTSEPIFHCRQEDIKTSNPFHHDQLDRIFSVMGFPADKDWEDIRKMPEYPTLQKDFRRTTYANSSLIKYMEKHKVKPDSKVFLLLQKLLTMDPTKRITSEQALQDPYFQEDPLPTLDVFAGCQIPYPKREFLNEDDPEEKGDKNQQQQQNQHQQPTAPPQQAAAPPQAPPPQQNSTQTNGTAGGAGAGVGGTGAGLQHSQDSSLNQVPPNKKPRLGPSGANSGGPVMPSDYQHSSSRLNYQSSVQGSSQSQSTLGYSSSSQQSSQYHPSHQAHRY
T1 sequence (P24863 whole entry partner): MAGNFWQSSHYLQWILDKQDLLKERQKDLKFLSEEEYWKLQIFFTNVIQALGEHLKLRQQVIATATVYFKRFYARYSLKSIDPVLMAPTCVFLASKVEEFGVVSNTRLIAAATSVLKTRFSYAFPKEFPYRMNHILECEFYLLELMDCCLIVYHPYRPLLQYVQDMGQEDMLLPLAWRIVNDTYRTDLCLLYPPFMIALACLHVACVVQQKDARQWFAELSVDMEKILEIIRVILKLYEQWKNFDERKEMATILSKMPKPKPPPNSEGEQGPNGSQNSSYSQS

Row | Compound | inhibition at 1 µM [1] [%] | other results
1 | NC(=O)c1ccc([N+](=O)[O-])c(Nc2ccc(N3CC(OCCO)C3)cc2)c1 [Compound 5, 3-{4-[3-(2-hydroxyethoxy)azetidin-1-yl]phenylamino}-4-nitrobenzamide] | ≥ 50 | 
2 | CC(=O)c1ccc(C(N)=O)cc1Oc1ccc(N2CC(OCCO)C2)cc1 [Compound 28, 4-acetyl-3-{4-[3-(2-hydroxyethoxy)azetidin-1-yl]phenoxy}benzamide] | ≥ 50 | 
3 | CC(=O)c1ccc(C(N)=O)cc1Oc1ccc(OCCOC2CCOCC2)cc1 [Compound 32, 4-acetyl-3-{4-[2-(tetrahydropyran-4-yloxy)ethoxy]phenoxy}benzamide] | ≥ 50 | action on serine/threonine kinase activity [2]: did not affect; inhibition at 1 µM [3]: ≥ 90%
4 | CC(=O)c1ccc(C(N)=O)cc1Oc1ccc(OCCOCCOC(C)C)cc1 [Compound 33, 4-acetyl-3-{4-[2-(2-isopropoxyethoxy)ethoxy]phenoxy}benzamide] | ≥ 50 | 
5 | C[C@@H](O)c1ccc(C(N)=O)cc1Oc1ccc(OCCOC2CCOCC2)cc1 [Compound 43] |  | inhibition at 1 µM [3]: ≥ 90%
6 | CNC(=O)c1ccc([N+](=O)[O-])c(Nc2ccc(N3CC(OCCO)C3)cc2)c1 [Compound 48, 3-{4-[3-(2-hydroxyethoxy)azetidin-1-yl]phenylamino}-N-methyl-4-nitrobenzamide] | ≥ 50 | 
7 | NC(=O)c1ccc([N+](=O)[O-])c(Nc2ccc(OCCOC3CCOCC3)cc2)c1 [Compound 50, 4-nitro-3-{4-[2-(tetrahydropyran-4-yloxy)ethoxy]phenylamino}benzamide] | ≥ 50 | 
8 | NC(=O)c1ccc(C(F)(F)F)c(Oc2ccc(OCCOC3CCOCC3)cc2)c1 [Compound 64, 3-{4-[2-(tetrahydropyran-4-yloxy)ethoxy]phenoxy}-4-trifluoromethylbenzamide] | ≥ 50 | 
9 | CC(=O)c1ccc(C(N)=O)cc1Oc1ccc(OCCOC2CCOC2)cc1 (stereo not shown) [Compound 67, 4-acetyl-3-{4-[2-(tetrahydrofuran-3-yloxy)ethoxy]phenoxy}benzamide] | ≥ 50 | 
10 | C=C(F)c1ccc(C(N)=O)cc1Oc1ccc(OCCOC2CCOCC2)cc1 [Compound 84, 4-(1-fluorovinyl)-3-{4-[2-(tetrahydropyran-4-yloxy)ethoxy]phenoxy}benzamide] | ≥ 50 | 
11 | Cortistatin A |  | proliferation of various cancer cells [4]: suppresses proliferation
